Test results from the CheMixHub viscosity set.
± gives the uncertainty stated by the source.

Experiment: xn = mol fraction of the nth substance listed

CCCCOCCO + OCCOCCO
101 kPa
Details	viscosity [mPa·s]
293.15 K, x1 = 0.0527	34.87 ± 0.23
293.15 K, x1 = 0.1006	31.53 ± 0.2
293.15 K, x1 = 0.1978	25.56 ± 0.16
293.15 K, x1 = 0.2838	21.2 ± 0.13
293.15 K, x1 = 0.3994	16.51 ± 0.099
293.15 K, x1 = 0.4508	14.78 ± 0.088
293.15 K, x1 = 0.5016	13.23 ± 0.078
293.15 K, x1 = 0.5487	11.92 ± 0.07
293.15 K, x1 = 0.5792	11.12 ± 0.065
293.15 K, x1 = 0.6735	8.899 ± 0.052
293.15 K, x1 = 0.7975	6.435 ± 0.039
293.15 K, x1 = 0.8946	4.816 ± 0.03
293.15 K, x1 = 0.9556	3.894 ± 0.024
298.15 K, x1 = 0.0486	27.11 ± 0.18
298.15 K, x1 = 0.0983	24.47 ± 0.16
298.15 K, x1 = 0.2015	19.76 ± 0.12
298.15 K, x1 = 0.2993	16.07 ± 0.1
298.15 K, x1 = 0.3999	12.89 ± 0.079
298.15 K, x1 = 0.4504	11.5 ± 0.07
298.15 K, x1 = 0.4981	10.3 ± 0.063
298.15 K, x1 = 0.5447	9.244 ± 0.056
298.15 K, x1 = 0.5844	8.422 ± 0.051
298.15 K, x1 = 0.6781	6.756 ± 0.041
298.15 K, x1 = 0.7974	5.096 ± 0.032
298.15 K, x1 = 0.8989	3.946 ± 0.025
298.15 K, x1 = 0.9494	3.392 ± 0.021
303.15 K, x1 = 0.0465	19.89 ± 0.13
303.15 K, x1 = 0.0998	17.79 ± 0.12
303.15 K, x1 = 0.2008	14.36 ± 0.093
303.15 K, x1 = 0.2979	11.66 ± 0.075
303.15 K, x1 = 0.4002	9.382 ± 0.06
303.15 K, x1 = 0.4487	8.472 ± 0.054
303.15 K, x1 = 0.491	7.751 ± 0.049
303.15 K, x1 = 0.5513	6.832 ± 0.043
303.15 K, x1 = 0.6	6.167 ± 0.039
303.15 K, x1 = 0.7032	4.949 ± 0.032
303.15 K, x1 = 0.8025	3.971 ± 0.025
303.15 K, x1 = 0.8829	3.29 ± 0.021
303.15 K, x1 = 0.9536	2.765 ± 0.017

CCCCOCCO + OCCOCCOCCO
101 kPa
Details	viscosity [mPa·s]
293.15 K, x1 = 0.048	36.14 ± 0.23
293.15 K, x1 = 0.111	30.89 ± 0.2
293.15 K, x1 = 0.1958	25.06 ± 0.15
293.15 K, x1 = 0.3023	19.11 ± 0.12
293.15 K, x1 = 0.4053	14.62 ± 0.087
293.15 K, x1 = 0.4492	12.94 ± 0.077
293.15 K, x1 = 0.4988	11.29 ± 0.067
293.15 K, x1 = 0.5502	9.833 ± 0.058
293.15 K, x1 = 0.5922	8.791 ± 0.052
293.15 K, x1 = 0.6915	6.755 ± 0.041
293.15 K, x1 = 0.7959	5.249 ± 0.032
293.15 K, x1 = 0.8902	4.37 ± 0.027
293.15 K, x1 = 0.9457	3.879 ± 0.024
298.15 K, x1 = 0.0536	30.5 ± 0.2
298.15 K, x1 = 0.1049	27.17 ± 0.17
298.15 K, x1 = 0.2064	21.51 ± 0.13
298.15 K, x1 = 0.2953	17.55 ± 0.11
298.15 K, x1 = 0.3982	13.71 ± 0.082
298.15 K, x1 = 0.4518	12.06 ± 0.072
298.15 K, x1 = 0.5018	10.7 ± 0.064
298.15 K, x1 = 0.5494	9.463 ± 0.056
298.15 K, x1 = 0.5998	8.336 ± 0.05
298.15 K, x1 = 0.6966	6.451 ± 0.039
298.15 K, x1 = 0.7997	4.971 ± 0.031
298.15 K, x1 = 0.8916	3.873 ± 0.024
298.15 K, x1 = 0.9411	3.369 ± 0.021
303.15 K, x1 = 0.0501	26.39 ± 0.17
303.15 K, x1 = 0.1015	23.75 ± 0.15
303.15 K, x1 = 0.197	19.42 ± 0.12
303.15 K, x1 = 0.3006	15.59 ± 0.095
303.15 K, x1 = 0.4006	12.58 ± 0.076
303.15 K, x1 = 0.4531	11.14 ± 0.067
303.15 K, x1 = 0.4972	10.12 ± 0.061
303.15 K, x1 = 0.5469	8.986 ± 0.054
303.15 K, x1 = 0.6012	7.888 ± 0.047
303.15 K, x1 = 0.6893	6.343 ± 0.039
303.15 K, x1 = 0.803	4.661 ± 0.029
303.15 K, x1 = 0.89	3.59 ± 0.022
303.15 K, x1 = 0.9416	3.02 ± 0.019

CCOC(=O)CCl + OCc1ccccc1
viscosity [mPa·s], 101.3 kPa
Details	x1 = 0.1072	x1 = 0.2035	x1 = 0.2998	x1 = 0.395	x1 = 0.5	x1 = 0.5984	x1 = 0.6981	x1 = 0.7972	x1 = 0.8941
298.15 K	4.078 ± 0.049	3.295 ± 0.04	2.729 ± 0.034	2.285 ± 0.028	1.923 ± 0.024	1.669 ± 0.021	1.459 ± 0.019	1.326 ± 0.017	1.188 ± 0.016
303.15 K	3.567 ± 0.043	2.887 ± 0.035	2.428 ± 0.03	2.036 ± 0.026	1.747 ± 0.022	1.516 ± 0.019	1.334 ± 0.017	1.209 ± 0.016	1.092 ± 0.014
308.15 K	3.058 ± 0.037	2.48 ± 0.031	2.127 ± 0.027	1.815 ± 0.023	1.572 ± 0.02	1.365 ± 0.018	1.209 ± 0.016	1.093 ± 0.014	0.997 ± 0.013

[Cl-].[Cl-].[Cl-].[Cl-].[Ti+4] + [Cl-].[Cl-].[Cl-].[Cl-].[Sn+4]
viscosity [mPa·s], 101 kPa
Details	x2 = 0.2	x2 = 0.4	x2 = 0.6	x2 = 0.8
293.15 K	0.847 ± 0.015	0.87 ± 0.015	0.895 ± 0.015	0.922 ± 0.016
313.15 K	0.702 ± 0.012	0.703 ± 0.012	0.705 ± 0.012	0.709 ± 0.012

CC(C)CC(C)C + c1ccccc1
101 kPa, x1 = 0.5
Details	viscosity [mPa·s]
298 K	0.3825 ± 0.01
318 K	0.314 ± 0.0085

CCCCOCCO + c1ccccc1
viscosity [mPa·s], 101 kPa
Details	298.15 K	308.15 K
x1 = 0.0553	0.648 ± 0.012	0.562 ± 0.01
x1 = 0.1496	0.736 ± 0.013	0.631 ± 0.011
x1 = 0.2488	0.845 ± 0.015	0.717 ± 0.013
x1 = 0.3504	0.978 ± 0.016	0.821 ± 0.014
x1 = 0.4555	1.144 ± 0.019	0.949 ± 0.016
x1 = 0.4995	1.223 ± 0.02	1.011 ± 0.017
x1 = 0.5504	1.323 ± 0.022	1.088 ± 0.018
x1 = 0.6482	1.543 ± 0.025	1.258 ± 0.021
x1 = 0.7535	1.83 ± 0.029	1.479 ± 0.024
x1 = 0.8483	2.143 ± 0.033	1.718 ± 0.028
x1 = 0.9556	2.575 ± 0.04	2.048 ± 0.033

O=C(OCc1ccccc1)c1ccccc1 + c1ccccc1
viscosity [mPa·s], 101 kPa
Details	x1 = 0.11	x1 = 0.1886	x1 = 0.27	x1 = 0.4124	x1 = 0.52	x1 = 0.5911	x1 = 0.7827	x1 = 0.8954
298.15 K	0.9057 ± 0.0095	1.196 ± 0.032	1.514 ± 0.016	2.301 ± 0.061	3.073 ± 0.034	3.584 ± 0.095	5.478 ± 0.15	6.883 ± 0.18
313.15 K	0.7205 ± 0.0075	–	1.161 ± 0.012	–	2.18 ± 0.023	–	–	–

c1ccc2c(c1)CCCC2 + c1ccccc1
298.15 K, 101 kPa
Details	viscosity [mPa·s]
x1 = 0.1394	0.719 ± 0.0095
x1 = 0.3016	0.8758 ± 0.011
x1 = 0.493	1.098 ± 0.014
x1 = 0.7222	1.445 ± 0.019
